The values below are quoted from earlier work in US6713046B1, “Magnetic resonance imaging agents for the delivery of therapeutic agents” (Research Corporation Technologies, priority 1997, dated 2004).

For the data set the following is noted: thermodynamic stability of the Gd(III) chelate complex; background statement.

For the compound `O=C([O-])CN1CCN(CC(=O)[O-])CCN(CC(=O)O)CCN(CC(=O)[O-])CC1.[Gd+3]` [Gd-DOTA], the “stability constant (K), formation constant, logK” value is 28.5.
